Assay results reported in patent US20030175745A1, “Peptides with growth inhibitory action” (priority 2001, published 2003).
Where a SMILES comes first, the peptide text is derived from it.

Assays:
[1] = system: NIH3T3-PDGF-ββ cells; assay: Growth assay with NIH3T3-PDGF-ββ cells, cell number by PicoGreen DNA; assay type: cell-based; settings: for inhibition compared to the base medium (BITS): Example 4 (Table 2); for % of control cell growth: 5 days, BITS medium
Experimental: NIH 3T3 cells transfected with PDGF-ββ (a stable cell line) were obtained from Mount Sinai School of Medicine. These cells overexpress PDGF-ββ and are activated via the PDGF-R in an autocrine fashion. Cells were grown at 37° C. in Dulbecco's Modified Eagles Medium (high glucose) (DMEM) with 10% heat-inactivated fetal calf serum (FCS) with 100 units or μg/ml penicillin/streptomycin with 750 μg/ml G418 sulfate (Geneticin) selection. Cells were incubated in an atmosphere of 5% CO2, and cultures were fed twice weekly. For subcultivation, cells were allowed to attain confluence and washed twice with PBS or Hank's balanced salt solution (minus Ca^++ and Mg^++) before addition of a trypsin/EDTA solution to dislodge the cells. Cells were split anywhere from ¼ to 1/12 into a sterile T-75 Flask depending on the time desired until confluence.
To identify peptides that inhibit cell growth in culture, candidate peptides were screened in a growth assay with NIH3T3-PDGF-ββ cells. Cells were expanded in DMEM containing G418 as described above. […] Growth medium was removed and the peptide solution added (250 μl/well). Cells were incubated for 5 days without feeding prior to testing. After this time, growth of cells treated with each peptide was compared to growth in control medium (no peptide added).
Cell number was assessed by measurement of total cellular double-stranded DNA using the PicoGreen Assay Kit (Molecular Probes, Eugene, Oreg., USA, lot #6405-1). For PicoGreen analysis, cell lysates (100 μl ) were added to 100 µl of the dye solution prepared by diluting the PicoGreen dye (1:200 in 1× TE according to the manufacturer's instructions). Plates were read after five minutes in a fluorimeter (irradiated at an excitation wavelength of 485 nm). Fluorescence emission was measured at 530 nm using a CytoFluor Series 4000 (PerSeptive Biosystems, Framingham, Mass.). For correlating DNA level to cell number, a standard curve was established for the NIH3T3-PDGF-ββ cells. For analysis, DNA absorbance/emission was compared to the absorbance/emission shown by a standard curve of DNA.

[2] = system: PDGF-R; settings: in the μM range; cited from earlier work
[3] = target: α-type PDGF-R (Homo sapiens, UniProt P16234); settings: high concentrations; cited from earlier work
α-type PDGF-R, sequence (P16234 24-1089): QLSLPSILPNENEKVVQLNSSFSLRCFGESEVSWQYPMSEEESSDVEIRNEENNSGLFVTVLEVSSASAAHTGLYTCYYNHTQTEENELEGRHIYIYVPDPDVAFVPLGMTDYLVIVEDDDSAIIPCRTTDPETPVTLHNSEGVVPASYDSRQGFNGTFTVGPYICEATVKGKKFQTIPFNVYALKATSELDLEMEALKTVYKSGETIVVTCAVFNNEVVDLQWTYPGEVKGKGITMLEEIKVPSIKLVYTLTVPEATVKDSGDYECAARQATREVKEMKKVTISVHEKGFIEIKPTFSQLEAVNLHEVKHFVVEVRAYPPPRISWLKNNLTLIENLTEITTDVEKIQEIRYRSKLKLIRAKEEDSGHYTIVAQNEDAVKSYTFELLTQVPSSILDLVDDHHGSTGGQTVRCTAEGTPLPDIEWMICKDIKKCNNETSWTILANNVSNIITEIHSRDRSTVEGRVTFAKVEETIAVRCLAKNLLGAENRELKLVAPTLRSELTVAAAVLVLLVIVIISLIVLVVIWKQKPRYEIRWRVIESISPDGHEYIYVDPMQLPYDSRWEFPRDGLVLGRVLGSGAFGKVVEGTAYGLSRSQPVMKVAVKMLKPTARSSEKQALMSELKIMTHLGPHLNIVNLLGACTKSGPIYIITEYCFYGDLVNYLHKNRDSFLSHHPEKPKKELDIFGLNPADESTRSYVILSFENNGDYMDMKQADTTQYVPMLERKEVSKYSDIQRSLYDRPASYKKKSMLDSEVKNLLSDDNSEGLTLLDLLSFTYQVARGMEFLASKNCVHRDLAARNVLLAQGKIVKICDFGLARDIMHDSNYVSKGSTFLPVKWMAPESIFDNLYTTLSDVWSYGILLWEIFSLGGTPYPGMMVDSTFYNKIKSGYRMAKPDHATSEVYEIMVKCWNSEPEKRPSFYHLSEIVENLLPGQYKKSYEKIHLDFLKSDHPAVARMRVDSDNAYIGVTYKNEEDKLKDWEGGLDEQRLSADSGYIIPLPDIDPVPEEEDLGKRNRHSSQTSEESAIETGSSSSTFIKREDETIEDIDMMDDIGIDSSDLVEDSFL

[4] = target: PDGF β receptor (Homo sapiens, UniProt P09619); settings: cited from earlier work
PDGF β receptor, sequence (P09619 33-1106): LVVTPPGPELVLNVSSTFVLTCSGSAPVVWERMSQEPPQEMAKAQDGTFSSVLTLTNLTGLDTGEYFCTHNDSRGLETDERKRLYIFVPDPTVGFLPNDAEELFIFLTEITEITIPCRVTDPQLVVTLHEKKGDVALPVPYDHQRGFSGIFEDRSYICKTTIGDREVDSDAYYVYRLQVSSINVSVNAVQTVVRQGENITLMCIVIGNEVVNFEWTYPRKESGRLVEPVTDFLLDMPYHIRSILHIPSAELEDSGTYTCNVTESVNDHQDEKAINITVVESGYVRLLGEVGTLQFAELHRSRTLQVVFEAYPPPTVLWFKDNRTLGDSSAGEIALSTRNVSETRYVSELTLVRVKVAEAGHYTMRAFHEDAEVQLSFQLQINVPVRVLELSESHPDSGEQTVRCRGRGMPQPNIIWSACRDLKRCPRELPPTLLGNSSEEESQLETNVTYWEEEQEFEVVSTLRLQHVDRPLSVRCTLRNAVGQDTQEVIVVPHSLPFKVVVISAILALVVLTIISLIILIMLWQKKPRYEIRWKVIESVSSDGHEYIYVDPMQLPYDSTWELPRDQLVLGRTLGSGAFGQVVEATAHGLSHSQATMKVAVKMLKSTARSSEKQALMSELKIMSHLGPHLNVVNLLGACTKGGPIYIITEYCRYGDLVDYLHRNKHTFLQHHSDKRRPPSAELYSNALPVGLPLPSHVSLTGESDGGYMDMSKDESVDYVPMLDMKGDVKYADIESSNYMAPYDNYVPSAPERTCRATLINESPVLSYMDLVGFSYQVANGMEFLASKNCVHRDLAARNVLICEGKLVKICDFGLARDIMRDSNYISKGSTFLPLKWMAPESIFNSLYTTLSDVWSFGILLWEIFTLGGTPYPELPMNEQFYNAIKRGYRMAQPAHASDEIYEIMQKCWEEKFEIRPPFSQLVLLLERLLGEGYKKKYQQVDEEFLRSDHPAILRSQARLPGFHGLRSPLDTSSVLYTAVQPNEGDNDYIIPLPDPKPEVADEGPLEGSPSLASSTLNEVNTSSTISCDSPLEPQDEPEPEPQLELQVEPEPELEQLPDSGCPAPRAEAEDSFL

NCCCC[C@H](NC(=O)[C@H](CCCCN)NC(=O)[C@H](CCCCN)NC(=O)[C@@H](N)CCCCN)C(=O)O [KKKK] (H-KKKK-OH)
inhibition of cell growth compared to control medium (BITS) ([1]; Example 3, KKKK (Bachem) 3 mM): 21% | inhibition of cell growth compared to control medium (BITS) ([1]; Example 3, KKKK (Bachem) 6 mM): 36% | inhibition compared to the base medium (BITS) ([1]; 6 mM peptide): 59% | inhibition compared to the base medium (BITS) ([1]; 12 mM peptide): 82% | % of control cell growth ([1]; Table 1, KKKK (Bachem) 3 mM): 78% | % of control cell growth ([1]; Table 1, KKKK (Bachem) 6 mM): 65% | % of control cell growth ([1]; Table 1, KKKK (Bachem) 12 mM): 39% | % of control cell growth ([1]; Table 2, 1 mM peptide): 105% | % of control cell growth ([1]; Table 2, 3 mM peptide): 72% | % of control cell growth ([1]; Table 2, 6 mM peptide): 41% | % of control cell growth ([1]; Table 2, 12 mM peptide): 17%

Cc1ccc(C(=O)Nc2ccc(S(=O)(=O)O)c3cc(S(=O)(=O)O)cc(S(=O)(=O)O)c23)cc1NC(=O)c1cccc(NC(=O)Nc2cccc(C(=O)Nc3cc(C(=O)Nc4ccc(S(=O)(=O)O)c5cc(S(=O)(=O)O)cc(S(=O)(=O)O)c45)ccc3C)c2)c1 [suramin]
inhibition of PDGF binding to PDGF R [2]: 100%

DDEEK (printed: ASP ASP GLU GLU LYS) [pentapeptide ASP ASP GLU GLU LYS, from Bachem]
growth inhibition in the initial screen of the library [1]: inhibiting growth | relative potency in inhibiting cell growth ([1]; 6 mM): most potent inhibitor | inhibition compared to the base medium (BITS) ([1]; 6 mM peptide): 91% | inhibition compared to the base medium (BITS) ([1]; 12 mM peptide): 84% | % of control cell growth ([1]; Table 2, 1 mM peptide): 108% | % of control cell growth ([1]; Table 2, 3 mM peptide): 93% | % of control cell growth ([1]; Table 2, 6 mM peptide): 11% | % of control cell growth ([1]; Table 2, 12 mM peptide): 16%

FFFKK (printed: PHE PHE PHE LYS LYS) [pentapeptide PHE PHE PHE LYS LYS, from Bachem]
growth inhibition in the initial screen of the library [1]: inhibiting growth | inhibition compared to the base medium (BITS) ([1]; 6 mM peptide): 29% | inhibition compared to the base medium (BITS) ([1]; 12 mM peptide): 82% | % of control cell growth ([1]; Table 2, 1 mM peptide): 111% | % of control cell growth ([1]; Table 2, 3 mM peptide): 103% | % of control cell growth ([1]; Table 2, 6 mM peptide): 69% | % of control cell growth ([1]; Table 2, 12 mM peptide): 18%

FFHPV (printed: PHE PHE HIS PRO VAL) [pentapeptide PHE PHE HIS PRO VAL, from Bachem]
growth inhibition in the initial screen of the library [1]: inhibiting growth | inhibition compared to the base medium (BITS) ([1]; 6 mM peptide): 14% | inhibition compared to the base medium (BITS) ([1]; 9.5 mM peptide): 82% | % of control cell growth ([1]; Table 2, 1 mM peptide): 116% | % of control cell growth ([1]; Table 2, 3 mM peptide): 111% | % of control cell growth ([1]; Table 2, 6 mM peptide): 85% | % of control cell growth ([1]; Table 2, 9.5 mM peptide): 16%

KLMSY (printed: LYS LEU MET SER TYR) [pentapeptide LYS LEU MET SER TYR, from Bachem]
growth inhibition in the initial screen of the library [1]: inhibiting growth | inhibition compared to the base medium (BITS) ([1]; 6 mM peptide): 23% | inhibition compared to the base medium (BITS) ([1]; 12 mM peptide): 91% | % of control cell growth ([1]; Table 2, 1 mM peptide): 127% | % of control cell growth ([1]; Table 2, 3 mM peptide): 126% | % of control cell growth ([1]; Table 2, 6 mM peptide): 76% | % of control cell growth ([1]; Table 2, 12 mM peptide): 10%

neomycin
inhibition of binding of PDGF-ββ to the α-type PDGF-R [3]: inhibited | inhibition of binding to the PDGF β receptor [4]: not able to inhibit
